# Results as given in US20140186869A1, “METHOD FOR INHIBITING PROTEASE IN BIOLOGICAL SAMPLE CONTAINING PANCREATIC JUICE COMPONENTS” (OLYMPUS CORPORATION, priority 2011, published 2014).
# Read-outs that look alike come from different tables or passages of the source.
# Columns and labels:
# [1] = system: protease present in pancreatic juice; assay: Protease activity (fluorescent-labeled casein, same manner as Example 1) in pancreatic juice specimens; format: biochemical; settings: pancreatin and two pancreatic juice specimens, 1 mM PMSF, 4 mM AEBSF; for protease inhibitory effect (fluorescence = degraded amount of casein): Example 3, 0.3 μM aprotinin, 50 μM leupeptin, FIG. 4; for protease inhibitory effects against protease present in pancreatic juice: Example 4, 5 mM p-APMSF, 100 μl TLCK, 100 μM TPCK, FIG. 5
# Description: After adding each protease inhibitor cocktail so that the final concentration thereof was equal to manufacturer's recommended concentration (1×) or a concentration equal to 5 times the recommended concentration (5×), protease activity was measured using a simulated artificial pancreatic juice in the form of “pancreatin”, a digestive enzyme produced from porcine pancreas in which pancreatic enzymes are present in an activated state. Protease activity was measured using EnzCheck Protease Assay Kits (Molecular Probes). […] In addition, a sample solution in which fluorescent-labeled casein was added directly to pancreatin (inhibitor (−), DMSO (−)), a sample solution in which DMSO was added to pancreatin so that the added amount of DMSO was the same as in the case of adding each protease inhibitor cocktail at the manufacturer's recommended concentration (1×) (inhibitor (−), DMSO 1×), and a sample solution in which DMSO was added to pancreatin so that the added amount of DMSO was the same as in the case of adding each protease inhibitor cocktail at a concentration equal to five times the manufacturer's recommended concentration (5×) (inhibitor (−), DMSO 5×) were prepared for use as controls, and these sample solutions were measured for protease activity in the same manner as the protease inhibitor cocktails.
# There are four types of serine protease inhibitors contained in Protease Inhibitor Mix (GE) consisting of aprotinin, leupeptin, PMSF and AEBSF (concentrations are not disclosed). Therefore, protease activity was measured in the same manner as Example 1 using pancreatin and two types of pancreatic juice specimens for 15 combinations of the four types of inhibitors prepared so that the final concentration was equal to the maximum recommended concentration for each protease inhibitor alone. Furthermore, the maximum recommended concentrations consisted of 0.3 μM for aprotinin (Roche), 50 μM for leupeptin (Roche), 1 mM for PMSF (Roche) and 4 mM for AEBSF (Roche). In addition, protease activity was also measured in the same manner for a sample solution to which protease inhibitor was not added (Control Sample Solution 1), a sample solution containing the recommended concentration of Inhibitor Cocktail 1 (Complete, Roche) (Control Sample Solution 2), a sample solution containing Inhibitor Cocktail 1 at 5 times the recommended concentration (5×) (Control Sample Solution 3), a sample solution containing the recommended concentration of Inhibitor Cocktail 4 (Protease Inhibitor Mix, GE) (Control Sample Solution 4), and a sample solution containing Inhibitor Cocktail 4 at five times the recommended concentration (5×) (Control Sample Solution 5).
# More specifically, a sample solution obtained by adding 1 mM PMSF and 4 mM AEBSF, a sample solution obtained by adding 1 mM PMSF, a sample solution obtained by adding 4 mM AEBSF, a sample solution obtained by adding 5 mM p-APMSF, a sample solution obtained by adding […] TLCK and a sample solution obtained by adding 100 μM TPCK were prepared for use as protease inhibitors, and the protease activity of each sample solution was measured in the same manner as Example 1 using pancreatin and two types of pancreatic juice specimens. In addition, the protease activities of a sample solution to which protease inhibitor was not added (inhibitor (−)), a sample solution containing Inhibitor Cocktail 1 at the recommended concentration (Complete, Roche), a sample solution containing Inhibitor Cocktail 1 at 5 times the recommended concentration (5×), a sample solution containing Inhibitor Cocktail 4 at the recommended concentration (Protease Inhibitor Mix, GE), and a sample solution containing Inhibitor Cocktail 4 at five times the recommended concentration (5×) were also measured in the same manner.
# [2] = system: protease present in pancreatic juice; assay: as above; format: biochemical; settings: for concentration at which high levels of protease inhibitory effects against protease present in pancreatic juice are obtained: Example 7, pancreatin and two pancreatic juice specimens, various final concentrations, FIGS. 9-11
# [3] = system: pancreatin (simulated artificial pancreatic juice; pancreatic enzymes in an activated state); assay: Protease activity, EnzCheck Protease Assay Kits (fluorescent-labeled casein), in pancreatin solution; format: biochemical, porcine; settings: Example 5; 0.0003 mM to 0.3 mM Aprotinin; FIGS. 6 and 7
# Description: […] 5 times the recommended concentration (5×), protease activity was measured using a simulated artificial pancreatic juice in the form of “pancreatin”, a digestive enzyme produced from porcine pancreas in which pancreatic enzymes are present in an activated state. Protease activity was measured using EnzCheck Protease Assay Kits (Molecular Probes). More specifically, fluorescent-labeled casein provided with the kits was added to a pancreatin solution to which each protease inhibitor cocktail had been added, and after incubating for 2 hours at 37° C., fluorescence was measured at a fluorescence wavelength of Ex/Em=485/535 nm. […]
# Fluorescence plotted on the vertical axis represents the degraded amount of casein, and that value was estimated to be the value of protease activity.
# [4] = system: protease in duodenal juice specimens; assay: Protease activity (fluorescent-labeled casein) in duodenal juice specimens; format: biochemical; settings: Example 9; four duodenal juice specimens; 1 mM PMSF + 4 mM AEBSF plus 0.3 mM Aprotinin or 1 mM TLCK; FIG. 14
# Description: After adding each protease inhibitor cocktail so that the final concentration thereof was equal to manufacturer's recommended concentration (1×) or a concentration equal to 5 times the recommended concentration (5×), protease activity was measured using a simulated artificial pancreatic juice in the form of “pancreatin”, a digestive enzyme produced from porcine pancreas in which pancreatic enzymes are present in an activated state. Protease activity was measured using EnzCheck Protease Assay Kits (Molecular Probes). More specifically, fluorescent-labeled casein provided with the kits was added to a pancreatin solution to which each protease inhibitor cocktail had been added, and after incubating for 2 hours at 37° C., fluorescence was measured at a fluorescence wavelength of Ex/Em=485/535 nm. […]
# More specifically, a sample solution obtained by adding 1 mM PMSF and 4 mM AEBSF, a sample solution obtained by adding 1 mM PMSF, 4 mM AEBSF and 0.3 mM Aprotinin, and a sample solution obtained by adding 1 mM PMSF, 4 mM AEBSF and 1 mM TLCK were prepared as protease inhibitors, and the protease activity of each sample solution was measured in the same manner as Example 1 using four types of duodenal juice specimens. The protease activity of a sample solution to which protease inhibitor was not added (Inhibitor (−)) was also measured in the same manner as a control.
# [5] = Example 5, pancreatic juice specimens, 10-50 μm Elastase Inhibitor I, 1-10 mM EDTA, 0.0003-0.3 mM Aprotinin, 0.005-5 mM Leupeptin, 0.01-1 mM TLCK or TPCK, FIGS. 6 and 7
Compound,"inhibitory effects against protease present in pancreatic juice [2, 5]",protease inhibitory effects against protease present in pancreatic juice [1],concentration at which high levels of protease inhibitory effects against protease present in pancreatic juice are obtained [2] [mM],further results
CC(=O)N[C@@H](CC(C)C)C(=O)N[C@@H](CC(C)C)C(=O)N[C@H](C=O)CCCNC(=N)N [Leupeptin],hardly any inhibitory effects,,,protease inhibitory effect (fluorescence = degraded amount of casein) [1]: hardly any effect on protease activity
O=C(O)CN(CCN(CC(=O)O)CC(=O)O)CC(=O)O [EDTA],,,,inhibitory effects against protease present in pancreatic juice [2]: hardly any inhibitory effects
"O=S(=O)(F)Cc1ccccc1 [PMSF, phenylmethylsulfonyl fluoride]",,high levels of protease inhibitory effects,≥ 1,
"Cc1ccc(S(=O)(=O)N[C@@H](Cc2ccccc2)C(=O)CCl)cc1 [TPCK, N-a-tosyl-L-phenylalanine chloromethyl ketone]",slight protease inhibitory effects,low levels of protease inhibitory effects,,
Aprotinin,hardly any effects,,,"protease inhibitory effects against pancreatin (simulated pancreatic juice) [3]: weak protease inhibitory effects; protease inhibitory effect (fluorescence = degraded amount of casein) [1]: hardly any effect on protease activity; additional inhibitory effects when added to PMSF and AEBSF, compared with PMSF and AEBSF only [4]: additional inhibitory effects were not observed"
"NCCc1ccc(S(=O)(=O)F)cc1 [AEBSF, 4-(2-aminoethyl)-benzenesulfonyl fluoride]",,high levels of protease inhibitory effects,≥ 4,
"Cc1ccc(S(=O)(=O)N[C@@H](CCCCN)C(=O)CCl)cc1 [TLCK, N-a-tosyl-L-lysine chloromethyl ketone]",hardly any inhibitory effects,low levels of protease inhibitory effects,,"additional inhibitory effects when added to PMSF and AEBSF, compared with PMSF and AEBSF only [4]: additional inhibitory effects were observed"
p-amidinophenylmethane sulfonyl fluoride hydrochloride [p-APMSF],,high levels of protease inhibitory effects,≥ 2,
